Reference: patent publication US5719130A, “Anthracycline derivative having a trifluoromethylated sugar” (Zaidan Hojin Biseibutsu Kagaku Kenkyu Kai, priority 1994, dated 1998)
In brackets after ≈: the same amount, converted by molar mass. Entries after “also recorded” stand apart in the source; their conditions may differ. Where two headings read alike, the source gives them in different places.

What was measured:
Leukemia L-1210 cells [1] = test: Antitumor activity against leukemia L-1210 in CDF1 mice, 60-day observation (Test Example 1); format: in vivo, mouse; details: for % Increase in life-span (T/C, %): 9 days, 60 d observation, '>' = at least one of four mice survived 60 days; for development of toxicity (in words): 2.5 to 5 mg/kg/day for daunomycin, adriamycin, 0.3 to 1.25 mg/kg/day for Compound (b), low dosages for formula (I)
Protocol: Thus, to evaluate the antitumor effects of the new compounds of this invention against experimental tumors in animals, CDF1 mice (four mice per group) were intraperitoneally transplanted with cells of Leukemia L-1210 at an amount of 1×10^5 cells/mouse. Since an elapsed time of 24 hours from the transplantation of the leukemia cells, a test compound according to this invention was administered intraperitoneally to the mice under test for 9 consecutive days once per day. […] While, mice of the control group (the untreated group) were administered with only physiological saline after the transplantation of the L-1210 cells. During the observation period, the numbers of the surviving mice in the treated group and in the control group were counted, and the mean survival days of mice in the treated group and in the control group were then calculated. From the mean survival day (C) of the untreated mice of the control group and the mean survival day (T) of the treated mice of the treated group, there were evaluated percentages (%) of the increase in the life-span of the treated mice, as T/C %. For a comparison purpose, 7-O-(2,6-dideoxy-2-fluoro-α-L-talopyranosyl)daunomycinone (abbreviation: FT-DM); 7-O-(2,6-dideoxy-2-fluoro-α-L-talopyranosyl)adriamycinone (abbreviation: FT-ADM); daunomycin and adriamycin were also tested in the same manner as above. Incidentally, the mean survival day of mice of the control group (the untreated group) was amounting to 8 to 9 days, and the mean survival day of mice of the comparative groups having received the administration of adriamycin was varying dependently on the dosage of adriamycin.

P388 cells = test: In vitro inhibition of growth of P388 cells, 72 hours (Test Example 3); format: cell-based, mouse; details: for IC50: Mus musculus; for antitumor activity against P388 cell (in words): compared with other compounds
Protocol: (§1) Furthermore, in order to estimate the antitumor activities of Compound (a) and Compound (b) of this invention represented by the general formula (I), as well as the adriamycinone derivative represented by the formula (II) (namely, Compound (c) of this invention), some "in vitro" tests for inhibiting proliferation of cancer cells were conducted as shown below.
(§2) The above-mentioned Compound (a), Compound (b) or Compound (c) according to this invention were added at varying concentrations to mouse leukemia, P388 cells or adriamycin-resistant P388 cells (P388/ADR) which had been incubated in test tubes containing an appropriate culture medium. The incubation of the tumor cells were then continued for 72 hours from the addition of the test compound, and determination was made to evaluate such concentrations of the test compound which could inhibit the growth of the leukemia cells by 50% (namely, IC50' ng/ml). FT-DM, FT-ADM and adriamycin (as the hydrochloride) were used as comparative compounds and were tested in the same manner as above.

[2] = tested on: adriamycin-resistant P388 cells (P388/ADR); test: In vitro inhibition of growth of adriamycin-resistant P388 cells, 72 hours (Test Example 3); format: cell-based, mouse; details: for IC50: Mus musculus, P388/ADR, 72 hours; for growth inhibition of P388/ADR cell (in words): compared with adriamycin, FT-DM, FT-ADM
Protocol: as §1, §2

Leukemia L-1210 cells [3] = test: Antitumor activity against leukemia L-1210 in CDF1 mice, 30-day observation (Test Example 2); format: in vivo, mouse; details: for mice surviving 30 days / mice tested / % Increase in life-span (T/C, %): 9 days; for % Increase in life-span (T/C, %): 30 d observation, '>' = at least one of four mice survived 30 days
Protocol: Since an elapsed time of 24 hours from the transplantation of the leukemia cells, Compound (c) of this invention was administered intraperitoneally to the mice under test for 9 consecutive days once per day. […] While, mice of the control group (the untreated group) were administered with only physiological saline after the transplantation of the L-1210 cells. During the observation period, the numbers of the surviving mice in the treated group and the control group were counted, and the mean survival days of mice in the treated group and in the control group were then calculated. From the mean survival day (C) of the untreated mice of the control group and the mean survival day (T) of the treated mice of the treated group, there were evaluated percentages (%) of the increase in the life-span of the treated mice as T/C %. For a comparison purpose, adriamycin was also tested in the same manner as above.

[4] = human, in vivo; cited from earlier work
[5] = 0.3 mg/kg/day to 1.25 mg/kg/day, about 300% or more

## COc1cccc2c1C(=O)c1c(O)c3c(c(O)c1C2=O)C[C@@](O)(C(C)=O)C[C@@H]3O[C@@H]1O[C@@H](C(F)(F)F)[C@@H](O)[C@@H](O)[C@H]1F [Compound (a), 7-O-(2,6-dideoxy-2,6,6,6-tetrafluoro-α-L-talopyranosyl)daunomycinone]
Leukemia L-1210 cells [1]
  antitumor activity in vivo (in words): much higher therapeutic effects against the L-1210 leukemia than daunomycin; also recorded: at low dosages of 0.6 to 1.25 mg/kg exhibited much higher therapeutic effects than FT-DM
Leukemia L-1210 cells [1]; 0.15 mg/kg/day i.p.
  % Increase in life-span (T/C, %): 106%
Leukemia L-1210 cells [1]; 0.3 mg/kg/day i.p.
  % Increase in life-span (T/C, %): 119%
Leukemia L-1210 cells [1]; 0.6 mg/kg/day i.p.
  % Increase in life-span (T/C, %): 132%
Leukemia L-1210 cells [1]; 1.25 mg/kg/day i.p.
  % Increase in life-span (T/C, %): 294%
Leukemia L-1210 cells [1]; 2.5 mg/kg/day i.p.
  % Increase in life-span (T/C, %): 210%
Leukemia L-1210 cells [1]; 5 mg/kg/day i.p.
  % Increase in life-span (T/C, %): 158%
P388 cells; P388, 72 h
  IC50: < 0.0098 µg/mL
[2]
  IC50: 0.028 µg/mL (≈ 0.0466 µM)
  growth inhibition of P388/ADR cell (in words): can inhibit the growth of P388/ADR cell at the remarkedly lower concentrations than adriamycin; also recorded: at the substantially same concentrations as or at the lower concentrations than FT-DM and FT-ADM

## COc1cccc2c1C(=O)c1c(O)c3c(c(O)c1C2=O)C[C@@](O)(C(=O)CO)C[C@@H]3O[C@@H]1O[C@@H](C(F)(F)F)[C@@H](O)[C@@H](O)[C@H]1F [Compound (b), 7-O-(2,6-dideoxy-2,6,6,6-tetrafluoro-α-L-talopyranosyl)adriamycinone]
Leukemia L-1210 cells [1]
  antitumor activity in vivo (in words): remarkedly higher antitumor effects in mice than FT-ADM; also recorded: extraordinarily higher anticancer or antitumor activities than those of adriamycin; also recorded: enhanced anticancer or antitumor activities over the whole range of low dosages of from 0.15 to 1.25 mg/kg of Compound (b), as compared with the comparative drug, FT-ADM
  development of toxicity (in words): not accompanied by development of toxicity
Leukemia L-1210 cells [1]; 0.15 mg/kg/day i.p.
  % Increase in life-span (T/C, %): 144%
Leukemia L-1210 cells [1]; 0.3 mg/kg/day i.p.
  % Increase in life-span (T/C, %): > 407%
Leukemia L-1210 cells [1]; [5]
  percentages of increase in the life-span: ≥ 300%
Leukemia L-1210 cells [1]; 0.6 mg/kg/day i.p.
  % Increase in life-span (T/C, %): > 459%
Leukemia L-1210 cells [1]; 1.25 mg/kg/day i.p.
  % Increase in life-span (T/C, %): > 348%
Leukemia L-1210 cells [1]; 2.5 mg/kg/day i.p.
  % Increase in life-span (T/C, %): 233%
Leukemia L-1210 cells [1]; 5 mg/kg/day i.p.
  % Increase in life-span (T/C, %): 128%
Leukemia L-1210 cells [1]; 0.3 to 1.25 mg/kg
  survival for 60 days / cure (in words): some cases of the complete curing of the L-1210 cell-inoculated mice; also recorded: the mouse which could survive for 60 days (namely, the mouse as fully cured from the leukemia) can be observed
P388 cells; P388, 72 hours, read-out: IC50
  IC50: < 0.0098 µg/mL
P388 cells
  antitumor activity against P388 cell (in words): to a substantially same degree as that of FT-ADM
[2]
  IC50: 0.043 µg/mL (≈ 0.0698 µM)
  growth inhibition of P388/ADR cell (in words): can inhibit the growth of P388/ADR cell at the remarkedly lower concentrations than adriamycin; also recorded: at the substantially same concentrations as or at the lower concentrations than FT-DM and FT-ADM

## COc1cccc2c1C(=O)c1c(O)c3c(c(O)c1C2=O)C[C@@](O)(C(=O)CO)C[C@@H]3O[C@H]1C[C@H](O)[C@H](O)[C@H](C(F)(F)F)O1 [Compound (c), 7-O-(2,6-dideoxy-6,6,6-trifluoro-α-L-lyxo-hexopyranosyl)adriamycinone]
Leukemia L-1210 cells [3]; 0.15 mg/kg/day i.p.
  mice surviving 30 days / mice tested: 3/4
  % Increase in life-span (T/C, %): > 335%
Leukemia L-1210 cells [3]; 0.3 mg/kg/day i.p.
  mice surviving 30 days / mice tested: 3/4
  % Increase in life-span (T/C, %): > 329%
Leukemia L-1210 cells [3]; [5]
  percentages of increase in the life-span: ≥ 300%
Leukemia L-1210 cells [3]; 0.6 mg/kg/day i.p.
  mice surviving 30 days / mice tested: 2/4
  % Increase in life-span (T/C, %): > 283%
Leukemia L-1210 cells [3]; 1.25 mg/kg/day i.p.
  % Increase in life-span (T/C, %): 203%
Leukemia L-1210 cells [3]; 2.5 mg/kg/day i.p.
  % Increase in life-span (T/C, %): 194%
Leukemia L-1210 cells [3]; 5 mg/kg/day i.p.
  % Increase in life-span (T/C, %): 135%
Leukemia L-1210 cells [3]; 0.3 to 1.25 mg/kg/day
  complete curing (in words): some cases of the complete curing of the L-1210 cell-inoculated mice
Leukemia L-1210 cells [3]; 0.3 to 1.25 mg/kg/day, low dosages
  development of toxicity (in words): not accompanied by development of toxicity
Leukemia L-1210 cells [3]; 0.6 to 0.15 mg/kg
  antitumor activity in vivo (in words): very much higher anticancer or antitumor activities than those of adriamycin
Leukemia L-1210 cells [3]; amongst totally 12 test mice, 0.6 to 0.15 mg/kg
  mice which could survive for 30 days: 8 mice
P388 cells; P388, 72 hours, read-out: IC50
  IC50: < 0.0098 µg/mL
P388 cells
  antitumor activity against P388 cell (in words): to a substantially same degree as that of Compound (b)
[2]; 1/3-folds lower than that of adriamycin
  concentration inhibiting growth of P388/ADR (IC50) relative to that of adriamycin: 1/3
[2]
  IC50: 0.17 µg/mL (≈ 0.284 µM)
  growth inhibition of P388/ADR cell (in words): higher antitumor activities than adriamycin

## COc1cccc2c1C(=O)c1c(O)c3c(c(O)c1C2=O)C[C@@](O)(C(C)=O)C[C@@H]3O[C@H]1C[C@H](N)[C@H](O)[C@H](C)O1 [Daunomycin, daunomycin]
Leukemia L-1210 cells [1]; 0.15 mg/kg/day i.p.
  % Increase in life-span (T/C, %): 132%
Leukemia L-1210 cells [1]; 0.3 mg/kg/day i.p.
  % Increase in life-span (T/C, %): 112%
Leukemia L-1210 cells [1]; 0.6 mg/kg/day i.p.
  % Increase in life-span (T/C, %): 145%
Leukemia L-1210 cells [1]; 1.25 mg/kg/day i.p.
  % Increase in life-span (T/C, %): 158%
Leukemia L-1210 cells [1]; 2.5 mg/kg/day i.p.
  % Increase in life-span (T/C, %): 171%
Leukemia L-1210 cells [1]; 5 mg/kg/day i.p.
  % Increase in life-span (T/C, %): 138%
Leukemia L-1210 cells [1]
  development of toxicity (in words): accompanied by development of toxicity
[4]
  serious side-effects (in words): serious side-effects such as leukocytopenia, alopecia, myocardiopathy and others

## COc1cccc2c1C(=O)c1c(O)c3c(c(O)c1C2=O)C[C@@](O)(C(=O)CO)C[C@@H]3O[C@@H]1O[C@@H](C)[C@@H](O)[C@@H](O)[C@H]1F [FT-ADM, 7-O-(2,6-dideoxy-2-fluoro-α-L-talopyranosyl)adriamycinone]
Leukemia L-1210 cells [1]; 0.15 mg/kg/day i.p.
  % Increase in life-span (T/C, %): 127%
Leukemia L-1210 cells [1]; 0.3 mg/kg/day i.p.
  % Increase in life-span (T/C, %): 182%
Leukemia L-1210 cells [1]; 0.6 mg/kg/day i.p.
  % Increase in life-span (T/C, %): 185%
Leukemia L-1210 cells [1]; 1.25 mg/kg/day i.p.
  % Increase in life-span (T/C, %): 275%
Leukemia L-1210 cells [1]; 2.5 mg/kg/day i.p.
  % Increase in life-span (T/C, %): > 352%
Leukemia L-1210 cells [1]; 5 mg/kg/day i.p.
  % Increase in life-span (T/C, %): > 740%
P388 cells; P388, 72 hours, read-out: IC50
  IC50: 0.0034 µg/mL (≈ 0.00604 µM)
[2]
  IC50: 0.0928 µg/mL (≈ 0.165 µM)

## COc1cccc2c1C(=O)c1c(O)c3c(c(O)c1C2=O)C[C@@](O)(C(C)=O)C[C@@H]3O[C@@H]1O[C@@H](C)[C@@H](O)[C@@H](O)[C@H]1F [FT-DM, 7-O-(2,6-dideoxy-2-fluoro-α-L-talopyranosyl)daunomycinone]
Leukemia L-1210 cells [1]; 0.15 mg/kg/day i.p.
  % Increase in life-span (T/C, %): 105%
Leukemia L-1210 cells [1]; 0.3 mg/kg/day i.p.
  % Increase in life-span (T/C, %): 105%
Leukemia L-1210 cells [1]; 0.6 mg/kg/day i.p.
  % Increase in life-span (T/C, %): 125%
Leukemia L-1210 cells [1]; 1.25 mg/kg/day i.p.
  % Increase in life-span (T/C, %): 171%
Leukemia L-1210 cells [1]; 2.5 mg/kg/day i.p.
  % Increase in life-span (T/C, %): 217%
Leukemia L-1210 cells [1]; 5 mg/kg/day i.p.
  % Increase in life-span (T/C, %): 184%
P388 cells; P388, 72 hours, read-out: IC50
  IC50: 0.033 µg/mL (≈ 0.0604 µM)
[2]
  IC50: 0.15 µg/mL (≈ 0.274 µM)
